Assay results as given in PubChem BioAssay (NCI).
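Protocol summary: plate cells (96-well), add compound at 5 concentrations, incubate 48 h, interpolate endpoints linearly. At the TGI there is no net growth.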

How the values were obtained:
Test in all cases: DTP human tumour cell line panel, 48 h
DU-145 prostate = test system: DU-145 prostate
OVCAR-8 ovarian = test system: OVCAR-8 ovarian
SW-620 colon = test system: SW-620 colon
A549 NSCLC = test system: A549 NSCLC
SNB-75 CNS = test system: SNB-75 CNS
MDA-MB-435 = test system: MDA-MB-435
NCI-H522 lung = test system: NCI-H522 lung
SF-539 CNS = test system: SF-539 CNS
NCI/ADR-RES ovarian = test system: NCI/ADR-RES ovarian
T-47D breast = test system: T-47D breast

Row | Structure (SMILES) | TGI (DU-145 prostate) [µM] | TGI (OVCAR-8 ovarian) [µM] | TGI (SW-620 colon) [µM] | TGI (A549 NSCLC) [µM] | TGI (SNB-75 CNS) [µM] | TGI (MDA-MB-435) [µM] | TGI (NCI-H522 lung) [µM] | TGI (SF-539 CNS) [µM] | TGI (NCI/ADR-RES ovarian) [µM] | TGI (T-47D breast) [µM]
1 | Nc1ccc(S(=O)(=O)Nc2nccs2)cc1 | > 100 | > 100 | > 100 | > 100 | > 100 | > 100 | > 100 | > 100 | > 100 | > 100
2 | CCOC(=O)NC(Nc1cccc(C(F)(F)F)c1)(C(F)(F)F)C(F)(F)F | > 100 | > 100 | > 100 | > 100 | > 100 | > 100 | > 100 | > 100 | > 100 | > 100
3 | Cc1ccc2c(c1)C(=O)C1(C2)Cc2cccc(C)c2C1=O (stereo not given) | > 100 | > 100 | > 100 | > 100 | > 100 | > 100 | > 100 | > 100 | > 100 | > 100
4 | O=C(N/N=C/c1cc(Br)cc(Br)c1[O-])c1ccccc1O.O=C(N/N=C/c1cc(Br)cc(Br)c1[O-])c1ccccc1O.[Cu+2] | – | 1.38 | – | – | 1.99 | – | 0.59 | 0.926 | – | –
5 | COc1ccc2c(cnc3c4cc(OC)c(OC)cc4ccc23)c1 | > 100 | > 100 | > 100 | > 100 | – | > 100 | > 100 | > 100 | > 100 | > 100
6 | C=C(Cl)C(C)(Cl)CCC(Br)C(C)(C)Cl (stereo not given) | 47.5 | – | 30.9 | > 100 | 33.5 | 39.9 | 23.5 | 71.7 | 92.1 | –
7 | COC1C=COC2(C)Oc3c(C)c(O)c4c(O)c(c(C5SCCS5)c(O)c4c3C2=O)NC(=O)C(C)=C/C=C\C(C)C2OC(C)(C)OC(C2C)C(C)C(OC(C)=O)C1C (stereo not given) | 59.8 | 28.5 | > 100 | 22.6 | > 100 | 47.9 | 23 | 86.4 | > 100 | > 100
8 | NNC(=O)CSc1nc2ccccc2c(=O)n1N | > 100 | > 100 | > 100 | > 100 | 33 | > 100 | > 100 | > 100 | > 100 | > 100
9 | COc1ccc(N2C(=O)CSC2c2c[nH]c3ccccc23)cc1 (stereo not given) | > 100 | > 100 | > 100 | – | > 100 | > 100 | 84.9 | – | – | > 100
10 | CC(C)CC(O)P(=O)(O)O (stereo not given) | > 100 | – | > 100 | > 100 | > 100 | > 100 | – | – | – | > 100
11 | CN1[C@@H]2C[C@@H](OC(=O)[C@H](CO)c3ccccc3)C[C@H]1[C@@H]1O[C@@H]12 | > 100 | > 100 | > 100 | > 100 | – | > 100 | > 100 | – | > 100 | > 100
12 | CSc1cnc2ccccc2c1SC1CN(Cc2ccccc2)c2ccccc2C1=O (stereo not given) | > 100 | – | > 100 | > 100 | > 100 | > 100 | > 100 | > 100 | > 100 | > 100
13 | OCc1ccc(C2CC(c3ccco3)=NN2c2ccccc2)o1 (stereo not given) | – | > 100 | > 100 | > 100 | > 100 | – | > 100 | > 100 | – | –
14 | C=C1CN2CC(=C)CN(C1)CS(=O)(=O)N1CC(=C)CN(CC(=C)C1)S(=O)(=O)N1CC(=C)CN(CC(=C)C1)S(=O)(=O)C2 | > 100 | > 100 | > 100 | > 100 | – | > 100 | > 100 | 39.9 | > 100 | –
15 | Cc1ccc(S(=O)(=O)NC(=O)N[C@@H](Cc2cnc[nH]2)C(=O)O)cc1 | > 100 | > 100 | > 100 | > 100 | > 100 | – | > 100 | > 100 | > 100 | > 100
16 | COc1c(C(C)C)cc2c3c1OC(=O)[C@@]31CCCC(C)(C)C1CC2 (stereo not given in full) | – | 62 | > 100 | 60.1 | 55.7 | – | 38.7 | 44.8 | – | –
17 | O=C(CN(c1ccccc1)c1ccccc1)n1nnc2ccccc21 | – | > 100 | > 100 | > 100 | > 100 | – | 59.1 | > 100 | – | –
18 | CCC(=O)ONC(=O)Cn1ccc([N+](=O)[O-])n1 | > 100 | > 100 | > 100 | > 100 | > 100 | > 100 | > 100 | > 100 | > 100 | –
19 | COc1cccc(/C=N/n2c(C)n[nH]c2=O)c1 | – | > 100 | > 100 | > 100 | > 100 | > 100 | – | > 100 | > 100 | > 100
20 | O=C(O)/C=c1/c2ccccc2n2nc3ccccc3c12 | > 100 | 60.8 | > 100 | > 100 | – | > 100 | 60 | 73.5 | 81 | > 100
21 | Cc1cc(S(=O)(=O)Nc2nc3cc(-c4ccc(Cl)cc4)sc3c(=O)n2N)c(S)cc1Cl | > 100 | > 100 | > 100 | > 100 | > 100 | > 100 | > 100 | – | > 100 | > 100
22 | COc1cc(OC)c(C2c3cc4c(cc3OC(N3CCCC3)C2C)OCO4)c(OC)c1 (stereo not given) | 59.2 | > 100 | > 100 | 87.9 | – | – | 48.7 | 25.9 | 67 | > 100
23 | CC(=O)OCC1OC(n2c3c(cc(C#N)c2=S)CCCCC3)C(OC(C)=O)C(OC(C)=O)C1OC(C)=O (stereo not given) | > 100 | > 100 | – | > 100 | > 100 | > 100 | > 100 | > 100 | > 100 | > 100
24 | COC(=O)C1=C(C)NC(C)=C(C(=O)OC)C1c1nc2sccn2c1[N+](=O)[O-] | > 100 | > 100 | > 100 | > 100 | > 100 | > 100 | – | > 100 | > 100 | > 100
25 | CC(C)(Cl)C(Br)CCC(=CCCl)CBr (mixture of isomers) | 10.7 | 5.26 | 4.43 | 32.8 | 8.18 | 3.71 | 2.24 | 3.96 | 24.3 | –

Row | Structure (SMILES) | TGI (DU-145 prostate) [µM] | TGI (OVCAR-8 ovarian) [µM] | TGI (SW-620 colon) [µM] | TGI (A549 NSCLC) [µM] | TGI (SNB-75 CNS) [µM] | TGI (MDA-MB-435) [µM] | TGI (NCI-H522 lung) [µM] | TGI (SF-539 CNS) [µM] | TGI (NCI/ADR-RES ovarian) [µM] | TGI (T-47D breast) [µM]
26 | CCOc1ccc(/C=C2/C(=O)N=C(NC(C)=O)N2C)cc1 | > 100 | > 100 | > 100 | > 100 | > 100 | > 100 | – | > 100 | > 100 | > 100
27 | [N-]=[N+]=NC1=C(c2ccccn2)C(=O)c2cccc3cccc1c23 | > 100 | – | > 100 | > 100 | > 100 | > 100 | – | > 100 | > 100 | > 100
28 | COc1ccc(C2COc3cc(O)c(O)cc3C2)cc1 (stereo not given) | – | 63.3 | – | 188 | 164 | – | 14.1 | 136 | 27.1 | –
29 | Nc1ccn(C2OC(CO)C(O)C2O)c(=O)c1 (stereo not given) | – | > 625 | > 625 | > 625 | > 625 | – | > 625 | > 625 | > 625 | –
30 | Cn1c(COC(=O)Nc2ccccc2)c(COC(=O)Nc2ccccc2)c2ccc3cc(Cl)c(Cl)cc3c21 | 31 | 7.5 | > 75 | > 75 | 19.2 | 29.1 | – | 44.6 | 66.7 | 5.41
31 | O=c1c(C(c2ccc(Cl)cc2)c2c(O)c3ccccc3n(-c3ccccc3)c2=O)c(O)c2ccccc2n1-c1ccccc1 | – | > 100 | > 100 | > 100 | – | – | > 100 | > 100 | – | –
32 | O=C1C(=Cc2ccccc2O)N=C(c2ccccc2)N1n1c(-c2ccccc2)nc2ccccc2c1=O | > 100 | > 100 | > 100 | > 100 | 87.8 | > 100 | 67.1 | 50 | – | 93
33 | CCC/C(Cl)=N\OC(=O)Nc1ccc(OC(F)(F)F)cc1 | 33.4 | 36.3 | – | 42.3 | 35.8 | 49.9 | 2.39 | 33.3 | > 25.3 | 7.65
34 | COc1cc2c3c(c1OC)C1(C=CC(=O)C=C1)C[C@H]3N(C)CC2 | – | > 100 | > 100 | > 100 | > 100 | – | > 100 | > 100 | – | –
35 | CSc1sc2ccccc2[s+]1 | – | > 100 | > 100 | > 100 | > 100 | – | > 100 | > 100 | – | –
36 | CC(=O)O[C@]12CCCCCC1C1(O)C(O)CCCC[C@H]12 (stereo not given in full) | – | > 100 | > 100 | > 100 | > 100 | – | > 100 | – | – | –
37 | Nc1[nH]nc2nc3ccc(C(F)(F)F)cc3nc12 | 36.8 | 46 | 33.4 | > 100 | 41.3 | > 100 | 38.8 | – | > 100 | –
38 | CC(C)NC(=O)OCCN=c1c2ccccc2ccc2ccccc12 | > 100 | > 100 | > 100 | > 100 | > 100 | > 100 | – | > 100 | > 100 | 67.6
39 | On1c(-c2ccccc2)nc2ccccc2c1=S | > 100 | > 100 | > 100 | > 100 | > 100 | > 100 | – | > 100 | > 100 | > 100
40 | O=C1O[C@H](c2ccc3c(c2)OCO3)[C@H]2CO[C@@H](c3ccc4c(c3)OCO4)[C@@H]12 | – | > 100 | > 100 | > 100 | – | > 100 | > 100 | > 100 | > 100 | –
41 | Cn1c2ccccc2c(=O)c2cccc(C(=O)NC(CCCN=C(N)N)C(=O)O)c21 (stereo not given) | > 100 | > 100 | > 100 | > 100 | > 100 | > 100 | – | > 100 | 96 | > 100
42 | CC1CCCC(CC(=O)O)(CC(=O)O)C1 (stereo not given) | – | > 100 | > 100 | > 100 | – | > 100 | > 100 | > 100 | > 100 | –
43 | CC(=O)NC1c2ccccc2C(C)(C)C12CCC1(CC2)OCCO1 (stereo not given) | > 100 | > 100 | > 100 | > 100 | > 100 | – | > 100 | > 100 | > 100 | > 100
44 | CSc1ncnc2c1ncn2CCC#N | > 100 | > 100 | > 100 | > 100 | > 100 | > 100 | > 100 | > 100 | > 100 | –
45 | C=C1C(=O)C=C[C@]2(C)CC[C@H]3C(=C)C(=O)O[C@@H]3[C@@H]12 | 5.13 | 17.2 | 5.34 | 29.8 | – | 3.21 | 3.77 | 2.61 | 7.02 | 20.7
46 | O=NN(CCCl)C(=O)NC1CCC(O)CC1 (stereo not given) | – | > 100 | > 100 | > 100 | > 79.7 | – | 55.4 | > 61 | 69.4 | –
47 | CCNC(=O)Nc1cccc(NC(=O)NCC)n1 | > 100 | > 100 | > 100 | > 100 | > 100 | > 100 | > 100 | > 100 | – | > 100
48 | CN1COCc2c1ccc1cc3ccc4c(c3nc21)COCN4S(C)(=O)=O | > 100 | > 100 | > 100 | > 100 | 67.5 | > 100 | > 100 | – | > 100 | > 100
49 | O=c1oc2ccc([N+](=O)[O-])cc2c(Nc2ccc3c(c2)Oc2ccccc2O3)c1[N+](=O)[O-] | > 100 | > 100 | – | > 100 | > 100 | > 100 | > 100 | 61.1 | > 100 | > 100
50 | Cc1ccc(S(=O)(=O)C(C#N)c2nc3ccccc3nc2-n2ccnc2)cc1 (stereo not given) | – | > 100 | – | > 100 | > 100 | – | > 100 | > 100 | – | –
